Data from patent US7705034B2, “Vinylogous acid derivatives” (Hoffmann-La Roche Inc., priority 2006, dated 2010).

Target: T1, Chymase purified form human skin mast cells (Homo sapiens, UniProt P23946)
T1 construct: Chymase purified form human skin mast cells was obtained from Calbiochem; purchased Calbiochem (Merck Biosciences, San Diego, Calif., USA); host or cells: human skin mast cells (natural source)
T1 sequence (P23946 22-247): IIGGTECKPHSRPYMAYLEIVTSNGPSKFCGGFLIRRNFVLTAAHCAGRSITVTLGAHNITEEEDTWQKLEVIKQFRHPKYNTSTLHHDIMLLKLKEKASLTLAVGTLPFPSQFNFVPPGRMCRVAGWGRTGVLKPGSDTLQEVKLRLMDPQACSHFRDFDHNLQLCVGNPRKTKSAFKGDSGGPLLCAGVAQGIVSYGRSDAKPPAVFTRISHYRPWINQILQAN
Test: chymase peptide substrate assay (AAPF-AMC fluorescence)
Type: biochemical
Conditions: 1 nM chymase, 0.02 mM AAPF-substrate, pH 7.4, room temperature, 30 min pre-incubation
Description: The peptide was synthesized with a purity of 95% from Bachem, Bubendorf, Switzerland). Chymase purified form human skin mast cells was obtained from Calbiochem (Merck Biosciences, San Diego, Calif., USA). The assay buffer was 0.15 M NaCl, 0.05M, Tris HCl, 0.05% CHAPS (3-[(3-Cholamidopropyl)-dimethylammonio]-1-propane sulphonate), 0.1 mg/ml Heparin (Heparin sodium, Sigma, porcine intestinal mucosa), 0.02 mM AAPF-substrate, 1 nM Chymase at pH 7.4. The assay was performed in 96-well plates (Packard Optiplate), with a 0.05 ml volume at room temperature. Chymase activity was indicated by the initial rate of increase in fluorescence at 340/440 nm (excitation/emission) from free 7-amino-4-methylcoumarin released from the substrate. Inhibition of the activity by inhibitory compounds was read after 30 min pre-incubation with the chymase at room temperature in assay buffer without AAPF-substrate. The assay was then started by addition of the indicated concentration of AAPF-substrate.

CC(=O)NCc1c(C(C2=C(O)C(C)(c3ccccc3)C2=O)c2ccccc2)[nH]c2cc(C)ccc12 (stereo not shown) [Example 10, N-{2-[(2-Hydroxy-3-methyl-4-oxo-3-phenyl-cyclobut-1-enyl)-phenyl-methyl]-6-methyl-1H-indol-3-ylmethyl}-acetamide]
IC50: 25 nM

Cc1c(C(C2=C(O)C(C)(c3ccccc3)C2=O)c2ccccc2)[nH]c2ccccc12 (stereo not shown) [Example 6, 3-Hydroxy-4-methyl-2-[(3-methyl-1H-indol-2-yl)-phenyl-methyl]-4-phenyl-cyclobut-2-enone]
IC50: 34 nM

Cc1ccc(C2(C)C(=O)C(C(c3ccccc3)c3[nH]c4cc(C)ccc4c3C)=C2O)cc1 (stereo not shown) [Example 13, 2-[(3,6-Dimethyl-1H-indol-2-yl)-phenyl-methyl]-3-hydroxy-4-methyl-4-p-tolyl-cyclobut-2-enone]
IC50: 8 nM

CC(=O)NC(C)(C)Cc1c(C(C2=C(O)C(C)(c3ccccc3)C2=O)c2ccccc2)[nH]c2cc(C)ccc12 (stereo not shown) [Example 3, N-(2-{2-[(2-Hydroxy-3-methyl-4-oxo-3-phenyl-cyclobut-1-enyl)-phenyl-methyl]-6-methyl-1H-indol-3-yl}-1,1-dimethyl-ethyl)-acetamide]
IC50: 27 nM
